The results in this text go back to patent US20240335431A1, “1-H-PYRROLO[2,3-c]PYRIDINE COMPOUNDS” (Acerta Pharma B.V., priority 2023, published 2024).

Data set [1] is described as follows: Caco-2 cell monolayers intrinsic permeation assay in the presence of efflux inhibitors. The format is in vitro ADME. The note with it: Caco-2, with efflux inhibitors. From the text:
Caco-2 cells were obtained from American Type Culture Collection (ATCC). HEPES, penicillin, streptomycin, bovine serum albumin (BSA) were obtained from Beijing Xinjingke Biotechnology Co, Ltd. Fetal bovine serum, Hank's balanced salt solution (HBSS) and non-essential amino acids (NEAA) were purchased from Gibco. Dulbecco's Modified Eagle's Medium (DMEM) was purchased from Corning and MES from Sigma. HTS Transwell-24 permeable supports were purchased from Corning. Zosuquidar and Ko-143 were obtained from MedChemExpress and Benzbromarone from Sigma.
The Caco-2 cell culture medium consisted of DMEM with high glucose and L-glutamine supplemented with 10% FBS, 0.1 mg/mL streptomycin, 100 units of penicillin, 0.6 mg/mL kanamycin sulfate and 1×NEAA. […] culture medium was added to each Transwell insert with 800 mL added to each well of the reservoir. After incubation at 37° C. in 5% CO2 for 1 hour, the plates were ready for seeding.
The cells were cultivated in T-75 flasks at 37° C., 5% CO2, 95% relative humidity. At 80 to 90% confluence, cells were treated with trypsin/EDTA treatment until they became detached. The trypsin/EDTA was inactivated by adding excess serum containing medium. The cell suspension was centrifuged at 120 g for 10 minutes followed by resuspension of the cell pellet in seeding medium at a cell density of 7.92×10^5 cells/mL.
[…] of the resulting cell suspension was added to each well of the Transwell plate and incubated for 14 to 18 days, with medium replaced every other day. After incubation for 14 to 18 days, the cells should have reached confluence and should be tested for electrical resistance using a Millicel Epithelial Volt-Ohm measuring system (Millipore).
The cell monolayers were washed twice with pre-warmed HBSS and incubated at 37° C. for 30 minutes under gentle shaking (480 rpm).
The compound under test was presented as a 10 mM DMSO stock solution. 2 mL of the 10 mM stock was added to 8 mL DMSO to produce a 2 mM stock. 2 mL was added to 398 mL of HBSS containing 10 mM Zosuquidar, 30 mM Benzbromarone and 2 mM KO-143 to make a […] solution.
210 mL of the test compound solution was added to the apical compartment of the Transwell plate, with a 10 mL sample taken to act as the time 0 sample. The wells of the receiver (basolateral) compartment were filled with 800 mL HBSS (containing the efflux inhibitors). The plates were incubated at 37° C. with shaking at 480 rpm for 120 minutes with sampling at 45 and 120 minutes.
At each sampling time (0, 45 and 120 minutes) 10 mL was removed from the apical compartment and add to 90 mL (HBSS containing the efflux inhibitors). 100 mL was removed from each basolateral compartment. 3 volumes of cold acetonitrile containing internal standard was added to each sample and vortex mixed for 10 minutes at 100 rpm. Samples were then centrifuged at 400 rpm for 20 minutes. 50 mL of the supernatant was taken for LC/MS/MS analysis to determine compound concentration.
The apparent permeability (Papp), in units of centimetre per second, were calculated for Caco-2 drug transport using the following equation: […]
Where CR is the concentration of compound in the receiver side at the respective time point, CD is the concentration of compound in the donor side at the respective timepoint. Area is the surface area of the membrane and time is 4500 seconds (75×60 seconds).
(Passage across Caco-2 layers is used to estimate intestinal permeability.)

For data set [2], the system named is MOLM-13 cells. The data set can be described thus: Proliferation assay, MOLM-13 (CellTiter-Glo, 7 days). The format is cell-based, human. The method in brief:
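Cells were seeded at line-specific low densities for linear growth, exposed to 3.16-fold serial compound dilutions at 0.1% DMSO, and incubated 7 days at 37 °C, 5% CO2. Viability was read by CellTiter-Glo 2.0 luminescence; IC50 came from one-site fits of % inhibition, normalized between DMSO-treated cells (100%) and a day-0 plate (0%).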
Background: ATP-based viability assays read luminescence as a measure of living cells.

pIC50: −log10 of the molar value. Where two headings read alike, the source gives them in different places.

Regarding `CC(C)N(C(=O)c1cc(F)ccc1-n1cc(C(=O)[C@@H]2CCN(C(=O)[C@H]3N[C@@H]4CC[C@H]3C4)C2)c2ccncc21)C(C)C` [Example 3, 2-(3-((R)-1-((1R,3S,4S)-2-Azabicyclo[2.2.1]heptane-3-carbonyl)pyrrolidine-3-carbonyl)-1H-pyrrolo[2,3-c]pyridin-1-yl)-5-fluoro-N,N-diisopropylbenzamide], the Papp A→B in data set [1] worked out at 0.3 ×10⁻⁶ cm/s. Also, the pIC50 in data set [2] (Homo sapiens, MOLM-13, 168 h) is 7.01.
On the same counts, the results for `CCN(C(=O)c1cc(F)ccc1-n1cc(C(=O)C2CN(C(=O)[C@H]3N[C@@H]4CC[C@H]3C4)C2)c2ccncc21)C(C)C` [Example 8, 2-(3-(1-((1R,3S,4S)-2-Azabicyclo[2.2.1]heptane-3-carbonyl)azetidine-3-carbonyl)-1H-pyrrolo[2,3-c]pyridin-1-yl)-N-ethyl-5-fluoro-N-isopropylbenzamide] are 0.2 ×10⁻⁶ cm/s and 6.85.
On the same counts, the results for `COCCN(C)CCC[C@H](C(C)C)N1CCC(C(=O)c2cn(-c3ccc(F)cc3C(=O)N(C(C)C)C(C)C)c3cnccc23)CC1` (racemic) [Example 23, rac-(R)-5-Fluoro-N,N-diisopropyl-2-(3-(1-(6-((2-methoxyethyl)(methyl)amino)-2-methylhexan-3-yl)piperidine-4-carbonyl)-1H-pyrrolo[2,3-c]pyridin-1-yl)benzamide] are 1.5 ×10⁻⁶ cm/s and 7.43.
On the same counts, the results for `CC(C)N(C(=O)c1cc(F)ccc1-n1cc(C(=O)C2CCN(C[C@H]3CC[C@H](NS(C)(=O)=O)CC3)CC2)c2ccncc21)C(C)C` [Example 17, 5-Fluoro-N,N-diisopropyl-2-(3-(1-(((1r,4r)-4-(methylsulfonamido)cyclohexyl)-methyl)piperidine-4-carbonyl)-1H-pyrrolo[2,3-c]pyridin-1-yl)benzamide] are 1.8 ×10⁻⁶ cm/s and 6.97.
Regarding `CC(C)N(C(=O)c1cc(F)ccc1-n1cc(C(=O)C2CN(C(=O)[C@H]3N[C@@H]4CC[C@H]3C4)C2)c2ccnc(F)c21)C(C)C` [Example 15, 2-(3-(1-((1R,3S,4S)-2-Azabicyclo[2.2.1]heptane-3-carbonyl)azetidine-3-carbonyl)-7-fluoro-1H-pyrrolo[2,3-c]pyridin-1-yl)-5-fluoro-N,N-diisopropylbenzamide], the Papp A→B in data set [1] is 4.2 ×10⁻⁶ cm/s. For the same compound, the pIC50 in data set [2] (Homo sapiens, MOLM-13, 168 h) is 7.01.
For `Cc1c(C(=O)C2CCN(C(=O)[C@@H]3CCC4(CC4)N3)CC2)c2ccncc2n1-c1ccc(F)cc1C(=O)N1[C@H](C)COC[C@H]1C` (single isomer, unassigned) [Example 58-2], the Papp A→B in data set [1] is 5.4 ×10⁻⁶ cm/s. Further, the pIC50 in data set [2] was 7.43.
In the case of `Cc1c(C(=O)[C@@H]2CCN(C(=O)[C@@H]3CC[C@@H](C)N3)[C@@H](C)C2)c2ccncc2n1-c1ccc(F)cc1C(=O)N(C(C)C)C(C)C` (stereo in doubt) [Example 64, 5-Fluoro-N,N-diisopropyl-2-(2-methyl-3-((2S,4RS)-2-methyl-1-((2S,5R)-5-methylpyrrolidine-2-carbonyl)piperidine-4-carbonyl)-1H-pyrrolo[2,3-c]pyridin-1-yl)benzamide], the Papp A→B in data set [1] is 4.3 ×10⁻⁶ cm/s. In data set [2] (Homo sapiens, MOLM-13, 168 h), the pIC50 is 7.28.
On the same counts, the results for `CC(C)N(C(=O)c1cc(F)ccc1-n1cc(C(=O)C2CCN(C(=O)[C@@H]3CC4(CC4)CN3)CC2)c2ccncc21)C(C)C` [Example 26, (S)-2-(3-(1-(5-Azaspiro[2.4]heptane-6-carbonyl)piperidine-4-carbonyl)-1H-pyrrolo[2,3-c]pyridin-1-yl)-5-fluoro-N,N-diisopropylbenzamide] are 0.8 ×10⁻⁶ cm/s and 6.99.
For `CC(C)c1ccncc1-c1cc(F)ccc1-n1cc(C(=O)C2CCN(C(=O)[C@H]3N[C@@H]4CC[C@H]3C4)CC2)c2ccncc21` [Example 41, (1-((1R,3S,4S)-2-Azabicyclo[2.2.1]heptane-3-carbonyl)piperidin-4-yl)(1-(4-fluoro-2-(4-isopropylpyridin-3-yl)phenyl)-1H-pyrrolo[2,3-c]pyridin-3-yl)methanone], the Papp A→B in data set [1] turned out to be 0.5 ×10⁻⁶ cm/s. In data set [2] (Homo sapiens, MOLM-13, 168 h), the negative-log IC50 (pIC50) was 7.38.
On the same counts, the results for `CC(C)c1ncsc1-c1cc(F)ccc1-n1cc(C(=O)C2CN(C(=O)[C@H]3N[C@@H]4CC[C@H]3C4)C2)c2ccncc21.O=CO` [Example 12, (1-((1R,3S,4S)-2-Azabicyclo[2.2.1]heptane-3-carbonyl)azetidin-3-yl)(1-(4-fluoro-2-(4-isopropylthiazol-5-yl)phenyl)-1H-pyrrolo[2,3-c]pyridin-3-yl)methanone 1·formic acid] are 1.6 ×10⁻⁶ cm/s and 6.99.
On the same counts, the results for `CCN(C(=O)c1cc(F)ccc1-n1c(C)c(C(=O)C2CCN(C(=O)[C@H]3N[C@@H]4CC[C@H]3C4)CC2)c2ccncc21)C(C)C` [Example 46, 2-(3-(1-((1R,3S,4S)-2-Azabicyclo[2.2.1]heptane-3-carbonyl)piperidine-4-carbonyl)-2-methyl-1H-pyrrolo[2,3-c]pyridin-1-yl)-N-ethyl-5-fluoro-N-isopropylbenzamide] are 0.3 ×10⁻⁶ cm/s and 7.28.
On the same counts, the results for `CC(C)N(C(=O)c1cc(F)ccc1-n1cc(C(=O)C2CCN(C(=O)[C@H]3N[C@@H]4CC[C@H]3C4)CC2)c2c(F)cncc21)C(C)C.O=CO` [Example 44, 2-(3-(1-((1R,3S,4S)-2-Azabicyclo[2.2.1]heptane-3-carbonyl)piperidine-4-carbonyl)-4-fluoro-1H-pyrrolo[2,3-c]pyridin-1-yl)-5-fluoro-N,N-diisopropylbenzamide 1·formic acid] are 1 ×10⁻⁶ cm/s and 7.14.
Consider `CC(C)N(C(=O)c1cc(F)ccc1-n1cc(C(=O)C2CN(C(=O)[C@H]3N[C@H]4C[C@@H]3[C@@H](F)C4)C2)c2ccncc21)C(C)C` [Example 7, 5-Fluoro-2-(3-(1-((1S,3S,4S,5S)-5-fluoro-2-azabicyclo[2.2.1]heptane-3-carbonyl)azetidine-3-carbonyl)-1H-pyrrolo[2,3-c]pyridin-1-yl)-N,N-diisopropylbenzamide], for which the Papp A→B in data set [1] came out at 2.2 ×10⁻⁶ cm/s. In data set [2] (Homo sapiens, MOLM-13, 168 h), the pIC50 was 7.20.
`Cc1c(C(=O)C2CCN(C(=O)[C@H]3NC[C@@H]4C[C@@H]43)CC2)c2ccncc2n1-c1ccc(F)cc1-c1cnccc1C(C)C` [Example 54, (1-((1S,2S,5R)-3-Azabicyclo[3.1.0]hexane-2-carbonyl)piperidin-4-yl)(1-(4-fluoro-2-(4-isopropylpyridin-3-yl)phenyl)-2-methyl-1H-pyrrolo[2,3-c]pyridin-3-yl)methanone]: the Papp A→B in data set [1] stood at 4 ×10⁻⁶ cm/s. Besides, the pIC50 in data set [2] (Homo sapiens, MOLM-13, 168 h) is 7.31.
On the same counts, the results for `CC(C)c1ncccc1-c1cc(F)ccc1-n1cc(C(=O)C2CCN(C(=O)[C@H]3N[C@@H]4CC[C@H]3C4)CC2)c2ccncc21` [Example 38, (1-((1R,3S,4S)-2-Azabicyclo[2.2.1]heptane-3-carbonyl)piperidin-4-yl)(1-(4-fluoro-2-(2-isopropylpyridin-3-yl)phenyl)-1H-pyrrolo[2,3-c]pyridin-3-yl)methanone] are 1.5 ×10⁻⁶ cm/s and 7.57.
For the compound `CC(C)N(C(=O)c1cc(F)ccc1-n1cc(C(=O)[C@H]2CCN(C(=O)[C@H]3N[C@@H]4CC[C@H]3C4)C2)c2ccncc21)C(C)C` [Example 2, 2-(3-((S)-1-((1R,3S,4S)-2-Azabicyclo[2.2.1]heptane-3-carbonyl)pyrrolidine-3-carbonyl)-1H-pyrrolo[2,3-c]pyridin-1-yl)-5-fluoro-N,N-diisopropylbenzamide], the Papp A→B in data set [1] worked out at 0.4 ×10⁻⁶ cm/s. Also, in data set [2] (Homo sapiens, MOLM-13, 168 h), the pIC50 was 6.98.

As usually defined, the Papp A→B is how fast a substance crosses the layer from the apical side. One may read the pIC50 as −log10 of the IC50, conventionally taken in molar units. Low values mean a large IC50, high ones a small IC50.
